Results reported in patent US20240239854A1, “ANTIMICROBIAL PEPTIDES AND MODIFICATIONS THEREOF” (Donald Danforth Plant Science Center, priority 2022, published 2024).
In brackets after ≈: the same amount, converted by molar mass. Read-outs that look alike come from different tables or passages of the source. Residues, ends and D or L forms follow the SMILES beside them. No end group written: not given here.

What was measured:
Botrytis cinerea T4 = assay type: cell-based
Z. tritici = assay: Wheat - Zymoseptoria tritici in planta spray assay, curative; assay type: in vivo; conditions: wheat plants; 48 μM spray 24 hours after Z. tritici spores; 21 dpi
[1] = tested on: Fusarium graminearum PH-1; assay type: cell-based; conditions: MIC Day 1; 96-well plate, resazurin cell viability
[2] = tested on: Zymoseptoria tritici IPO323; assay type: cell-based
F. oxysporum [3] = assay: MIC, CLSI M27/M38, half-strength potato dextrose broth (Example 2); assay type: cell-based; conditions: Table 8
Protocol: (§1) MICs were determined at 24-72 hours.

F. solani = assay: as above; assay type: cell-based; conditions: Table 8; Fusarium F4 (F. solani)
Protocol: as §1

Candida albicans = assay: as above; assay type: cell-based; conditions: Table 8
Aspergillus fumigatus = assay: as above; assay type: cell-based; conditions: for MIC (μg/ml) 100%: Table 8, Aspergillus fumigatus AF293
F. graminearum = conditions: in vitro, low cationic conditions; F. graminearum
C. parapsilosis = assay: MIC, CLSI M27/M38, half-strength potato dextrose broth (Example 2); assay type: cell-based, Candida parapsilosis; conditions: Table 8; C. parapsilosis ATCC 22019
Protocol: as §1

Coccidioides sp. = assay type: cell-based; conditions: Table 8
B. cinerea = conditions: B. cinerea; for Antifungal activity relative to the wild-type GMA4C_AC control: in vitro, low cationic conditions
Candida auris [4] = assay: MIC, CLSI M27/M38, half-strength potato dextrose broth (Example 2); assay type: cell-based; conditions: Table 8
Tricophyton rubrum = assay: MIC against human nail pathogens (Example 2); assay type: cell-based; conditions: Table 13
[5] = tested on: Tricophyton metagrophytes; assay: MIC against human nail pathogens (Example 2); assay type: cell-based; conditions: Table 13
[6] = tested on: Listeria monocytogens (F5244); assay: Antibacterial growth inhibition in Mueller-Hinton media, OD600 (Example 3); assay type: cell-based; conditions: Table 15; L. monocytogenes F5244; MH medium
Candida auris [7] = assay: Antifungal MIC in RPMI medium; conditions: RPMI medium rich in cations
P. capsici [8] = assay: Antifungal MIC assay in SFM culture media (Example 1); assay type: cell-based; conditions: in vitro, low cationic conditions
[9] = tested on: Salmonella Typhimurium var. Copenhagen; assay: Antibacterial growth inhibition in Mueller-Hinton media, OD600 (Example 3); assay type: cell-based; conditions: Table 15; S. Typhimurium var. Copenhagen; MH medium
P. capsici [10] = assay: In planta assay on tomato leaves (Example 1); assay type: in vivo; conditions: applied on tomato leaves
Excerpt: Antifungal activity in planta.

F. oxysporum [11] = assay: Antifungal MIC assay in SFM culture media (Example 1); assay type: cell-based
[12] = tested on: Enterotoxigenic E. coli-F4; assay: Antibacterial growth inhibition in Mueller-Hinton media, OD600 (Example 3); assay type: cell-based; conditions: Table 15, MH medium
Protocol: Salmonella Typhimurium var. Copenhagen, Enterotoxigenic E. coli-F4 and Listeria monocytogens (F5244) strains were grown overnight on an LB agar plate at 37_C. A small number of bacteria was scraped from the plate and added to Mueller-Hinton (MH) growth media and grown to log phase. Cells were diluted to 1-3×10^6 CFU/mL and 50 μl were added to each well in a polypropylene 96-well plate. Synthesized peptide GMA4C_V1A was diluted into 0.2% BSA, 0.0100 acetic acid solution and added to the concentration of 0.2, 0.4, 0.80, 1.6, 3.25, 7.5, 15, 30 and 60 and 120 μM. Then, 50 μl of each peptide solution was added to 50 μl of bacterial cells. Plates were parafilmed and incubated at 37° C. overnight. The concentrations at which bacterial growth inhibition was determined based on the OD600 nm value at each concentration relative to the OD600 nm value of MH medium alone and that of bacterial growth in MH medium without any peptide.

Candida glabrata = assay: Antifungal MIC in RPMI medium; conditions: RPMI medium rich in cations

Molecule: PD101.1.1: Nicotiana sylvestris wild-type defensin SEQ ID NO: 624 with an N-terminal alanine, expressed in Pichia pastoris (KLCRRRSKTFSSSCFISEHCDKECKEKEGAKRGMCIKKSIFGRFCYCFHKCK; N-terminal alanine; listed as Nicotiana sylvestris)
- B. cinerea T4 MIC Day1 (Botrytis cinerea T4): 1.5 µM
- Curative protection against Septoria tritici blotch (STB) (Z. tritici): reduction of STB disease symptoms
- F. graminearum PH-1 MIC Day1 [1]: 1.5 µM
- MIC against Z. tritici on day 1 [2]: 0.75 µM
- MIC against Z. tritici on day 7 [2]: 1.5 µM
- MIC against Z. tritici on day 14 [2]: 1.5 µM
- Z. tritici IPO323 MIC Day 1 [2]: 0.75 µM
- Z. tritici IPO323 MIC Day 7 [2]: 1.5 µM
- Z. tritici IPO323 MIC Day 14 [2]: 1.5 µM

Molecule: CC[C@H](C)[C@H](NC(=O)[C@H](CCCNC(=N)N)NC(=O)[C@@H](NC(=O)[C@H](CS)NC(=O)[C@H](Cc1ccccc1)NC(=O)[C@H](CS)NC(=O)[C@H](CCCNC(=N)N)NC(=O)[C@H](CCCNC(=N)N)NC(=O)[C@H](CCCNC(=N)N)NC(=O)[C@H](Cc1ccccc1)NC(=O)CNC(=O)[C@H](CCCNC(=N)N)NC(=O)[C@H](CS)NC(=O)[C@H](CCCNC(=N)N)NC(=O)CNC(=O)CN)[C@@H](C)O)C(=O)N[C@@H](CS)C(N)=O [GMA4C_V2A] (H-GGRCRGFRRRCFCTRIC-NH2; N-terminus assumed)
- MIC (μg/ml) 100% (F. oxysporum [3]; Fusarium F1 (F. oxysporum)): 8 µg/mL (≈ 3.91 µM)
- MIC (μg/ml) 100% (F. oxysporum [3]; Fusarium F2 (F. oxysporum)): 16 µg/mL (≈ 7.82 µM)
- MIC (μg/ml) 100% (F. solani): 8 µg/mL (≈ 3.91 µM)
- MIC (μg/ml) 100% (Candida albicans; Candida albicans ATCC 90028): 16 µg/mL (≈ 7.82 µM)
- MIC (μg/ml) 100% (Candida albicans; Candida albicans CA3): 16 µg/mL (≈ 7.82 µM)
- MIC (μg/ml) 100% (Candida albicans; Candida albicans SC5314): 16 µg/mL (≈ 7.82 µM)
- MIC (μg/ml) 100% (Aspergillus fumigatus): 32 µg/mL (≈ 15.6 µM)
- Antifungal activity relative to the wild-type GMA4C_AC control (F. graminearum): two-fold reduction
- MIC (μg/ml) 100% (C. parapsilosis): 8 µg/mL (≈ 3.91 µM)
- MIC (μg/ml) 100% (Coccidioides sp.; Coccidioides sp. Cocci 1): 8 µg/mL (≈ 3.91 µM)
- MIC (μg/ml) 100% (Coccidioides sp.; Coccidioides sp. Cocci2): 16 µg/mL (≈ 7.82 µM)
- MIC (μg/ml) 100% (Coccidioides sp.; Coccidioides sp. DI17-143): 16 µg/mL (≈ 7.82 µM)
- Antifungal activity relative to the wild-type GMA4C_AC control (B. cinerea): two-fold reduction
- MIC (μg/ml) 100% (Candida auris [4]; Candida auris DI17-46): 16 µg/mL (≈ 7.82 µM)
- MIC (μg/ml) 100% (Candida auris [4]; Candida auris DI17-47): 16 µg/mL (≈ 7.82 µM)
- MIC (μg/ml) 100% (Candida auris [4]; Candida auris DI17-48): 16 µg/mL (≈ 7.82 µM)

Molecule: OeDef1_V3: OeDef1 variant of Table 13, printed with SEQ ID NO: 769, the number of GMAOe1C_V3 (GACLKNRHSKHYGWFWYYRHCY; not fully specified (C-terminus); cysteine pairing not given here)
- MIC Aspergillus fumigatus (36843) (Aspergillus fumigatus; Table 13): >7.9 µM
- MIC Tricophyton rubrum (23014) (Tricophyton rubrum): 4.0 µM
- MIC Tricophyton metagrophytes (26103) [5]: 4.0 µM

Molecule: CC[C@H](C)[C@H](NC(=O)[C@H](CCCNC(=N)N)NC(=O)[C@@H](NC(=O)[C@H](CS)NC(=O)[C@H](Cc1ccccc1)NC(=O)[C@H](CS)NC(=O)[C@H](CCCNC(=N)N)NC(=O)[C@H](CCCNC(=N)N)NC(=O)[C@H](CCCNC(=N)N)NC(=O)[C@H](Cc1ccccc1)NC(=O)CNC(=O)[C@H](CCCCN)NC(=O)[C@H](CS)NC(=O)[C@H](CCCNC(=N)N)NC(=O)CNC(=O)CN)[C@@H](C)O)C(=O)N[C@@H](CS)C(N)=O [GMA4C_V1A] (H-GGRCKGFRRRCFCTRIC-NH2; N-terminus assumed)
- Concentrations at which growth inhibition was observed [6]: 15 to 30 µM
- MIC (μg/ml) 100% (Candida albicans; Candida albicans ATCC 90028): 8 µg/mL (≈ 3.96 µM)
- MIC (μg/ml) 100% (Candida albicans; Candida albicans CA3): 8 µg/mL (≈ 3.96 µM)
- MIC (μg/ml) 100% (Candida albicans; Candida albicans SC5314): 8 µg/mL (≈ 3.96 µM)
- MIC (μg/ml) 100% (Aspergillus fumigatus): 32 µg/mL (≈ 15.9 µM)
- Antifungal activity against C. auris (Candida auris [7]): show antifungal activity
- Antifungal activity relative to the wild-type GMA4C_AC control (P. capsici [8]): equivalent
- Concentrations at which growth inhibition was observed [9]: 15 to 60 µM
- Reduction of disease symptoms caused by P. capsici (P. capsici [10]): more effective
- F. oxysporum MIC (F. oxysporum [11]; Table 2, SFM culture media): 6 μuM
- Antifungal activity relative to the wild-type GMA4C_AC control (F. oxysporum [11]; in vitro, low cationic conditions, F. oxysporum): equivalent
- Concentrations at which growth inhibition was observed [12]: 7.5 to 60 µM
- Antifungal activity relative to the wild-type GMA4C_AC control (F. graminearum): equivalent
- MIC (μg/ml) 100% (C. parapsilosis): 4 µg/mL (≈ 1.98 µM)
- Antifungal activity against C. glabrata (Candida glabrata): show antifungal activity
- MIC (μg/ml) 100% (Coccidioides sp.; Coccidioides sp. Cocci 1): 8 µg/mL (≈ 3.96 µM)
- MIC (μg/ml) 100% (Coccidioides sp.; Coccidioides sp. Cocci2): 4 µg/mL (≈ 1.98 µM)
- MIC (μg/ml) 100% (Coccidioides sp.; Coccidioides sp. DI17-143): 8 µg/mL (≈ 3.96 µM)
- Potency relative to GMA4C_AC in presence of cations (B. cinerea; 100 mM NaCl or 100 mM KCl): 2 fold
- Fungal growth inhibition at 6 μM (B. cinerea; in presence of 2 mM CaCl2, peptide 6 μM): inhibit fungal growth
- Antifungal activity relative to the wild-type GMA4C_AC control (B. cinerea): equivalent
- MIC (μg/ml) 100% (Candida auris [4]; Candida auris DI17-46): 8 µg/mL (≈ 3.96 µM)
- MIC (μg/ml) 100% (Candida auris [4]; Candida auris DI17-47): 8 µg/mL (≈ 3.96 µM)
- MIC (μg/ml) 100% (Candida auris [4]; Candida auris DI17-48): 8 µg/mL (≈ 3.96 µM)
